Source: patent US9156811B2 (priority 2008, dated 2015)
Read-outs that look alike come from different tables or passages of the source.

Legend:
[1] = target: L. major N-myristoyl transferase (Leishmania major, UniProt Q4Q5S8); assay type: biochemical; details: Leishmania major NMT; value in parentheses; read-out: IC50 (μM) NMT Enzyme (LmNMT)
[2] = system: Trypanosome (T. brucei brucei); test: In-vitro antitrypanosomal efficacy assay (cell growth, resazurin); assay type: cell-based
[3] = target: T. brucei N-myristoyl transferase (Trypanosoma brucei brucei (strain 927/4 GUTat10.1), UniProt Q388H8); test: biochemical; assay type: biochemical
[4] = target: human NMT-1 (Homo sapiens (Human), UniProt P30419); test: NMT enzyme inhibition scintillation proximity assay, human NMT-1; assay type: biochemical
[5] = T. brucei brucei, blood stream form, variant 221
[6] = T. brucei NMT, value without parentheses, read-out: IC50 (μM) NMT Enzyme (T. brucei NMT)
[7] = value with no enzyme tag in the cell, taken as T. brucei NMT, read-out: IC50 (μM) NMT Enzyme
[8] = Human NMT-1, value in parentheses, read-out: IC50 (μM) NMT Enzyme (HuNMT-1)
[9] = value printed without enzyme tag in the NMT Enzyme column (taken as T. brucei NMT), read-out: IC50 (μM) NMT Enzyme

Chain of human NMT-1 (P30419 whole entry): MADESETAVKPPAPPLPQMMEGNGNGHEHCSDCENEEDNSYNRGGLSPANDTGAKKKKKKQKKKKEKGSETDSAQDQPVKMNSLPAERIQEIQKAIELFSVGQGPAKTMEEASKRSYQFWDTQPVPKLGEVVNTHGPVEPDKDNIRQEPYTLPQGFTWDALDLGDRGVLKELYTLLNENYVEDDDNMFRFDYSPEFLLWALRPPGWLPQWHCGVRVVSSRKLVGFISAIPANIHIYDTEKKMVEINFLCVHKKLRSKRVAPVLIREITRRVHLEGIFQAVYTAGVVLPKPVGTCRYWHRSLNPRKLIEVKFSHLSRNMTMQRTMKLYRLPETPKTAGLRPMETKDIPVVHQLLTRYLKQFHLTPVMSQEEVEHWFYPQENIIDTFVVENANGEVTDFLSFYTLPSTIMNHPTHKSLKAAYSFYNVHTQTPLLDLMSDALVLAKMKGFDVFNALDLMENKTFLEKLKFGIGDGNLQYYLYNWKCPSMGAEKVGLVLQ
Chain of T. brucei N-myristoyl transferase (Q388H8 1-446): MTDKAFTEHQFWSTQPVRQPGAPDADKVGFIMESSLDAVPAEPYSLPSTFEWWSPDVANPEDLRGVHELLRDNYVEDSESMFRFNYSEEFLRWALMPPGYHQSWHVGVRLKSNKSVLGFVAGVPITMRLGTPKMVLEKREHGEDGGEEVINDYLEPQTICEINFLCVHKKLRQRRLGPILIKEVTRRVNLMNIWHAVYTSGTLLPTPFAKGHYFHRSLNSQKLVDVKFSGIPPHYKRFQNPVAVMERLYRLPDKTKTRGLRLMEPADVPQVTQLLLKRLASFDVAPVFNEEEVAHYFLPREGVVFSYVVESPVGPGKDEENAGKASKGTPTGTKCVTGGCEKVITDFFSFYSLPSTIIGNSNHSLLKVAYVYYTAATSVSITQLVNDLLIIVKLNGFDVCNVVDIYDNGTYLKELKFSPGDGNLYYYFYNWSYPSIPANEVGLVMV
Chain of L. major N-myristoyl transferase (Q4Q5S8 1-421): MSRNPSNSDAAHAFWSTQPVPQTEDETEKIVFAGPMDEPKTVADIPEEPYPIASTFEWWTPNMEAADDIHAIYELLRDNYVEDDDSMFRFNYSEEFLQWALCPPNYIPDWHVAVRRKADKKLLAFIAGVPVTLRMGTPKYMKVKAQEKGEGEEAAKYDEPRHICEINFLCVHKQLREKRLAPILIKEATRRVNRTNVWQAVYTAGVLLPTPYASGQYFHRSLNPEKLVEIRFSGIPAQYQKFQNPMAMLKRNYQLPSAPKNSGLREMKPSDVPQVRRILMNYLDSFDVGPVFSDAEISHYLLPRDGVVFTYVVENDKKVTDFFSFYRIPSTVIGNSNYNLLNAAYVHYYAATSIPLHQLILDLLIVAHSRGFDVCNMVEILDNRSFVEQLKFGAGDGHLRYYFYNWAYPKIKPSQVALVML

Compound	IC50 [3, 6] [µM]	IC50 ([4]; HuNMT-1) [µM]	IC50 [3, 7] [µM]	ED50 (μM) T. brucei [2, 5] [µM]	ED50 (μM) T. brucei ([2]; T. brucei cell growth) [µM]	further results
Cc1c(N[S+](=O)([O-])c2ccc(-c3cccc(CN4CCC(N(C)C)C4)c3)cc2)c(CC(C)C)nn1C (centres unmarked) [DDD99821]	–	3.8	0.16	–	0.59	–
Cc1nn(C)c(C)c1N(CC(F)F)[S+](=O)([O-])c1c(Cl)cc(CCCN2CCN(C)CC2)cc1Cl [DDD100163]	0.014	–	–	0.125	–	IC50 [4, 8]: 1.7 µM
CCc1nn(C)c(CC)c1NS(=O)(=O)c1c(Cl)cc(Br)cc1Cl [DDD99835]	0.38	–	–	>1	–	IC50 [4, 8]: > 1 µM
Cc1nn(C)c(C)c1N(C)[S+](=O)([O-])c1ccc(CCCn2ccnc2)cc1 [DDD99750]	–	> 1	> 1	–	>1	–
Cc1nn(C)c(C)c1N(C)[S+](=O)([O-])c1ccc(CCCCn2ccnc2)cc1 [DDD99746]	–	> 10	2	–	>1	–
Cc1c(N[S+](=O)([O-])c2ccc(-c3cccc(CN4CCCC4C)c3)cc2)c(CC(C)C)nn1C (centres unmarked) [DDD100804]	0.006	–	–	0.035	–	IC50 [1]: 0.077 µM
Cc1nn(C)c(C)c1N(C)[S+](=O)([O-])c1c(Cl)cc(-c2cccc(CNC3CCCCC3)c2)cc1Cl [DDD88642]	–	4.48	0.39	–	0.89	–
Cc1ccncc1N[S+](=O)([O-])c1c(Cl)cc(-c2ccnc(N3CCNCC3)c2)cc1Cl [DDD88322]	–	1.5	0.182	–	1.93	–
Cc1nn(C)c(C)c1N(CC(F)F)[S+](=O)([O-])c1c(Cl)cc(Br)cc1Cl [DDD100147]	3.2	–	–	>1	–	IC50 [4, 8]: > 10 µM
Cc1nn(C)c(C)c1N(C)[S+](=O)([O-])c1ccc(CCCC2CCN(CC3CC3)CC2)cc1 [DDD90155]	–	> 1	> 1	–	4.0	–
Cc1nn(C)c(C)c1N(C)[S+](=O)([O-])c1ccc(CCCC2CCN(C(C)C)CC2)cc1 [DDD90153]	–	> 1	0.31	–	>1	–
Cc1nn(C)c(C)c1N(C)[S+](=O)([O-])c1ccc(CCCCCn2ccnc2)cc1 [DDD99735]	–	2.9	0.83	–	>1	–
Cc1c(N[S+](=O)([O-])c2ccc(-c3cccc(CNC4CCCC4)c3)cc2)c(CC(C)C)nn1C [DDD100146]	0.36	–	–	>1	–	IC50 [4, 8]: 2.3 µM
COc1cc(C)c([S+](=O)([O-])Nc2c(C)nn(CCc3ccccc3)c2C)c(C)c1C [DDD73496]	–	–	–	–	>1	IC50 [3, 9]: > 100 µM
Cc1nn(C)c(C)c1N[S+](=O)([O-])Cc1ccccc1 [DDD71293]	–	–	–	–	>1	IC50 [3, 9]: > 100 µM
CCCN(CCC)Cc1cccc(-c2cc(Cl)c([S+](=O)([O-])N(C)c3c(C)nn(C)c3C)c(Cl)c2)c1 [DDD88636]	–	3.7	0.92	–	1.89	–
Cc1nn(C)c(C)c1N[S+](=O)([O-])c1ccc(CNc2ccc(N3CCOCC3)cc2)cc1 [DDD73506]	–	–	–	–	>1	IC50 [3, 9]: 10 µM
Cc1nn(C)c(C)c1N(CC(F)(F)F)[S+](=O)([O-])C1=C(Cl)C=C(CCCN2CCCNCC2)CC1Cl (centres unmarked) [DDD100148]	0.008	–	–	0.018	–	IC50 [4, 8]: 0.21 µM
Cc1nn(C)c(C)c1N[S+](=O)([O-])c1ccc(CNc2noc(C)c2C)cc1 [DDD73510]	–	–	–	–	>1	IC50 [3, 9]: 26.9 µM
Cc1nn(C)c(C)c1N[S+](=O)([O-])c1ccc(NCCN2CCN(C(=O)OC(C)(C)C)CC2)nc1 [DDD86310]	–	–	1	–	>1	–
Cc1nn(C)c(C)c1N[S+](=O)([O-])c1c(Cl)cc(-c2ccco2)cc1Cl [DDD73268]	–	–	–	–	>1	IC50 [3, 9]: 3.6 µM
Cc1nn(C)c(C)c1N[S+](=O)([O-])c1cc(Cl)sc1Cl [DDD61495]	–	–	–	–	>1	IC50 [3, 9]: 6.4 µM
Cc1nn(C)c(C)c1N(CCO)[S+](=O)([O-])c1c(Cl)cc(Br)cc1Cl [DDD85607]	–	–	–	–	7.1	IC50 [3, 9]: 1.1 µM

Now from value to molecule, other results behind:

IC50 [3, 6] [µM]	IC50 ([4]; HuNMT-1) [µM]	IC50 [3, 7] [µM]	Compound	ED50 (μM) T. brucei [2, 5] [µM]	ED50 (μM) T. brucei ([2]; T. brucei cell growth) [µM]	further results
0.032	–	–	Cc1c(N[S+](=O)([O-])c2ccc(-c3cccc(CN(C)C)c3)cc2)c(CCc2ccccc2)nn1C [DDD100885]	9.72	–	IC50 [1]: 0.211 µM
0.026	–	–	Cc1c(N[S+](=O)([O-])c2ccc(-c3cccc(CNCc4cccnc4)c3)cc2)c(CC(C)C)nn1C [DDD100793]	0.54	–	IC50 [1]: 1.4 µM
–	> 100	> 100	Cn1cc(N[S+](=O)([O-])c2c(Cl)cc(Br)cc2Cl)cn1 [DDD88325]	–	>10	–
0.014	–	–	Cc1nn(C)c(C)c1N(CC(F)(F)F)[S+](=O)([O-])c1c(Cl)cc(CCCN2CCN(C)CC2)cc1Cl [DDD100149]	0.132	–	IC50 [4, 8]: 2.4 µM
0.006	–	–	CCCc1nn(C)c(C)c1N[S+](=O)([O-])c1ccc(-c2cccc(CN(C)C)c2)cc1 [DDD100867]	0.048	–	IC50 [1]: 0.074 µM
–	6.1	0.26	Cc1nn(C)c(C)c1N(C)[S+](=O)([O-])c1ccc(CCCN2CCN(C)CC2)cc1 [DDD90115]	–	2.21	–
0.01	–	–	CCCCc1nn(C)c(C)c1N[S+](=O)([O-])c1ccc(-c2cccc(CN(C)C)c2)cc1 [DDD100866]	3.2	–	IC50 [1]: 0.054 µM
–	> 100	> 100	Cn1cc(N[S+](=O)([O-])c2ccc(Br)cc2)cn1 [DDD88321]	–	>10	–
–	> 10	2.1	Cc1nn(C)c(C)c1N(C)[S+](=O)([O-])c1ccc(CCCCN(C)C)cc1 [DDD99745]	–	>1	–
–	> 1	> 1	Cc1nn(C)c(C)c1N[S+](=O)([O-])c1cccc(CCCN2CCN(C)CC2)c1 [DDD88640]	–	18.7	–
0.004	–	–	Cc1c(N[S+](=O)([O-])c2ccc(-c3ccc(F)c(CN4CCCC4)c3)cc2)c(CC(C)C)nn1C [DDD100806]	0.033	–	IC50 [1]: 0.224 µM
0.02	–	–	Cc1c(N[S+](=O)([O-])c2ccc(-c3cccc(CNC(C)C)c3)cc2)c(CC(C)C)nn1C [DDD100799]	0.293	–	IC50 [1]: 0.47 µM
–	> 100	> 100	Cc1c(N[S+](=O)([O-])c2ccc(Br)cc2)cnn1C [DDD88326]	–	>10	–
1.4	–	–	Cc1c(N[S+](=O)([O-])c2ccc(-c3cccc(CNCCc4ccccc4)c3)cc2)c(CC(C)C)nn1C [DDD100139]	>1	–	IC50 [4, 8]: 2.3 µM
–	> 1	0.5	Cc1nn(C)c(C)c1N(C)[S+](=O)([O-])c1ccc(CCCC2CCN(Cc3ccccc3)CC2)cc1 [DDD90152]	–	>1	–
–	3.36	75.4	Cc1nn(C)cc1N[S+](=O)([O-])c1c(Cl)cc(Br)cc1Cl [DDD88324]	–	>10	–
–	> 1	0.45	Cc1nn(C)c(C)c1N(C)[S+](=O)([O-])c1ccc(CCCN(C)C)cc1 [DDD99749]	–	>1	–
1.3	–	–	Cc1c(N[S+](=O)([O-])c2ccc(-c3cccc(CNCc4ccccc4)c3)cc2)c(CC(C)C)nn1C [DDD100150]	>1	–	IC50 [4, 8]: 4 µM
–	> 100	44.1	Cc1nn(C)cc1N[S+](=O)([O-])c1ccc(Br)cc1 [DDD88320]	–	>10	–
–	6.3	0.61	Cc1nn(C)c(C)c1N[S+](=O)([O-])c1ccc2nc(NC3CCNCC3)ccc2c1 [DDD88523]	–	>1	–
–	–	0.045	Cc1ccnc(C)c1N[S+](=O)([O-])c1c(Cl)cc(-c2ccnc(N3CCNCC3)c2)cc1Cl [DDD88319]	–	0.69	–
–	–	1	Cc1nn(C)c(C)c1NS(=O)(=O)c1c(Cl)cc(-c2ccnc(NCCNc3ccccn3)c2)cc1Cl [DDD86302, 2,6-Dichloro-4-{2-[2-(pyridin-2-ylamino)-ethylamino]pyridin-4-yl}-N-(1,3,5-trimethyl-1 H-pyrazol-4-yl)-benzenesulfonamide]	–	>1	–
–	1.37	0.082	Cc1c(N(C)[S+](=O)([O-])c2ccc(CCCN3CCN(C)CC3)cc2)c(CC(C)C)nn1C [DDD90143]	–	0.81	–
–	–	1	Cc1nn(C)c(C)c1NS(=O)(=O)c1c(Cl)cc(-c2ccnc(N3CCC(N(C)C)C3)c2)cc1Cl (centres unmarked) [DDD86292, 2,6-Dichloro-4-[2-(3-dimethylamino-pyrrolidin-1-yl)-pyridin-4-yl]-N-(1,3,5-trimethyl-1 H-pyrazol-4-yl)-benzenesulfonamide]	–	>1	–
–	–	0.034	Cc1c(N[S+](=O)([O-])c2ccc(CCCN3CCN(C)CC3)cc2)c(CC(C)C)nn1C [DDD90147]	–	0.20	–
–	0.021	0.005	CCN(C)Cc1cccc(-c2ccc([S+](=O)([O-])Nc3c(CC(C)C)nn(C)c3C)cc2)c1 [DDD99741]	–	0.047	–
–	–	0.014	Cc1cc(CN(C)C)cc(-c2ccc([S+](=O)([O-])Nc3c(CC(C)C)nn(C)c3C)cc2)c1 [DDD99817]	–	0.047	–
